Assay results taken from ChEMBL document CHEMBL3045748, “A novel and eco-friendly procedure for the synthesis of some pyrazolo-thiadiazolo-pyrimidinones and its in vitro anti-bacterial activity” (2012).

What was measured:
Format in all cases: functional
Details in all cases: read-out: DIZ
Klebsiella = experiment: Antibacterial activity against Klebsiella at 50 ug after 18 hr by Kirby-Bauer's disk diffusion assay
Staphylococcus aureus = experiment: Antibacterial activity against Staphylococcus aureus at 50 ug after 18 hr by Kirby-Bauer's disk diffusion assay
Escherichia coli = experiment: Antibacterial activity against Escherichia coli at 50 ug after 18 hr by Kirby-Bauer's disk diffusion assay
Bacillus subtilis = experiment: Antibacterial activity against Bacillus subtilis at 50 ug after 18 hr by Kirby-Bauer's disk diffusion assay

Row | SMILES | zone of inhibition at 50 µg/disc (Klebsiella) [mm] | zone of inhibition at 50 µg/disc (Staphylococcus aureus) [mm] | zone of inhibition at 50 µg/disc (Escherichia coli) [mm] | zone of inhibition at 50 µg/disc (Bacillus subtilis) [mm]
1 | O=c1c2cnn(-c3ccccc3)c2nc2sc(CNCc3ccco3)nn12 | 13 | 20 | 8.5 | 18.5
2 | O=c1c2cnn(-c3ccccc3)c2nc2sc(CN3CCOCC3)nn12 | 14.5 | 7.5 | 9 | 7
3 | O=c1c2cnn(-c3ccccc3)c2nc2sc(CNc3ccccc3)nn12 | 12.5 | 14.5 | 10.5 | 14
4 | Cc1cccc(NCc2nn3c(=O)c4cnn(-c5ccccc5)c4nc3s2)c1 | 12 | 16.5 | 9.5 | 17
5 | COc1ccc(NCc2nn3c(=O)c4cnn(-c5ccccc5)c4nc3s2)cc1 | 14 | 15.5 | 11.5 | 15.5
6 | CNCc1nn2c(=O)c3cnn(-c4ccccc4)c3nc2s1 | 11.5 | 13.5 | 11 | 6.5
7 | CCNCc1nn2c(=O)c3cnn(-c4ccccc4)c3nc2s1 | 12 | 18.5 | 10.5 | 16
8 | CCCCCCNCc1nn2c(=O)c3cnn(-c4ccccc4)c3nc2s1 | 11.5 | 17.5 | 11 | 20.5
9 | CC1(C)S[C@@H]2[C@H](NC(=O)[C@H](N)c3ccccc3)C(=O)N2[C@H]1C(=O)O [AMPICILLIN] | 24.5 | 22.5 | 18.5 | 23.3
